This test concerns the target 5-hydroxytryptamine receptor 1B (Rattus norvegicus, UniProt P28564). Kind of test: Intrinsic affinity towards serotonin receptor from rat frontal cortex by displacement of [3H]5-HT. The format is tissue-based.

The structures appear in SMILES notation. pKi: −log10 of the molar value.

5-hydroxytryptamine receptor 1B, sequence (P28564 whole entry): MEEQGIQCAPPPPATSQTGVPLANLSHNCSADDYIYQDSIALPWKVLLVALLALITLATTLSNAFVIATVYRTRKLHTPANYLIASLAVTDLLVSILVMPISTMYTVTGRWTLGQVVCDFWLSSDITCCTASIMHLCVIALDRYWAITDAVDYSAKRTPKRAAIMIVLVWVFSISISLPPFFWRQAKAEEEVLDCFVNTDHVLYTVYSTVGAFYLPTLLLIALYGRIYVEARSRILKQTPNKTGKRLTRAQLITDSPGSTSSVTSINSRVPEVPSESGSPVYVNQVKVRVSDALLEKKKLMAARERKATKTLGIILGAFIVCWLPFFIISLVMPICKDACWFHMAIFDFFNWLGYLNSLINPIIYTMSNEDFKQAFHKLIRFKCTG

`FC(F)(F)c1cccc(N2CCNCC2)c1` showed a pKi of 6.94.
With `FC(F)(F)c1ccc2c(c1)N1CCNCC1CC2` (stereo not drawn) the figure was 7.17; with `Clc1cncc(N2CCNCC2)n1` [MK-212], 5.44.

(Values after ChEMBL document CHEMBL1122904, “Bioactive conformation of 1-arylpiperazines at central serotonin receptors” (J Med Chem, 1985).)
